According to ChEMBL document CHEMBL1151529, “Conformationally constrained analogues of DAG.7. Interaction of a medium-size -lactone with protein kinase C (PK-C)_” (Bioorg Med Chem Lett, 1994):

Columns and labels:
[1] = Displacement of [3H]phorbol-12,13-dibutyrate from mouse brain protein kinase C
[2] = target: Protein kinase C alpha type (Rattus norvegicus, UniProt P05696); experiment: Displacement of [3H]phorbol-12,13-dibutyrate from rat brain protein kinase C alpha

Structure (SMILES) | Ki [1] [µM] | Ki [2] [µM]
CCCCCCCCCCCCCC(=O)O[C@H]1CC(=O)O[C@@H]1CO | 5.3 | 
CCCCCCCCCCCCCC(=O)O[C@H]1CCC(=O)O[C@@H]1CO | 30.5 | 
CCCCCCCCCCCCCC(=O)O[C@@H]1CCCC(=O)O[C@H]1CO |  | 41
CCCCCCCCCCCCCC(=O)O[C@@H]1CC(=O)O[C@H]1CO | 2.5 | 
CCCCCCCCCCCCCC(=O)O[C@@H]1CCC(=O)O[C@H]1CO | 2.8 | 
